Reference: article PMC11943097, “Phytochemical Characterization and Anticancer Activity of Clerodendrum chinense Leaf Extract Against Breast and Cervical Cancer Cells” (International Journal of Molecular Sciences, 2025)
In brackets after ≈: the same amount, converted by molar mass. Read-outs that look alike come from different tables or passages of the source.

Experiments:
Assay type in all cases: cell-based
RAW 264.7 macrophages = assay: MTT cell viability assay, RAW264.7 cells; settings: Mus musculus
Procedure: (§1) MCF-7, HeLa, and RAW264.7 cells were cultured in DMEM supplemented with 10% FBS and 1% penicillin/streptomycin. Cell culture was maintained at 37 °C in a 5% CO2 incubator.
(§2) The assessment of cell viability was performed using an MTT assay to assess the cytotoxic effects of CCL on MCF-7, Hela, and RAW264.7 cells. Initially, MCF-7, HeLa, and RAW264.7 cells were seeded onto 96-well plates at a density of 2 × 10^4 cells/mL. Following a 24-h incubation period, the culture medium was replaced with a serum-free medium containing specified concentrations of CCL, verbascoside, isoverbascoside, and hispidulin ranging from 12.5 to 1000 µg/mL. Following 24, 48, and 72 h of treatment, an MTT solution (0.5 mg/mL in culture medium) was added to each well and incubated at 37 °C for 2 h. The metabolically active cells converted MTT into formazan crystals, which were then dissolved in 100 µL of DMSO per well. Absorbance was recorded at 550 nm using a SpectraMax 3 microplate reader (Molecular Devices, San Jose, CA, USA). The IC50 values were determined using GraphPad Prism v.7.0 (La Jolla, CA, USA). Cell viability was assessed in comparison to untreated control cells using the following equation: Cell viability %=A550sample/A550control×100%

HeLa cells = assay: MTT cell viability assay, HeLa cells; settings: Homo sapiens
Procedure: as §1, §2

MCF-7 cells = assay: MTT cell viability assay, MCF-7 cells; settings: Homo sapiens
Procedure: as §1, §2

## COc1c(O)cc2oc(-c3ccc(O)cc3)cc(=O)c2c1O [Hispidulin]
RAW 264.7 macrophages; RAW264.7, 24 h
  IC50: 99.2 µg/mL (≈ 330 µM)
RAW 264.7 macrophages; RAW264.7, 48 h
  IC50: 120 µg/mL (≈ 401 µM)
RAW 264.7 macrophages; RAW264.7, 72 h
  IC50: 180 µg/mL (≈ 600 µM)
HeLa cells; 24 h
  IC50: 98.2 µg/mL (≈ 327 µM)
HeLa cells; 48 h
  IC50: 119 µg/mL (≈ 397 µM)
HeLa cells; 72 h
  IC50: 311 µg/mL (≈ 1040 µM)
MCF-7 cells; MCF7, 24 h
  IC50: 905 µg/mL (≈ 3010 µM)
MCF-7 cells; MCF7, 48 h
  IC50: 710 µg/mL (≈ 2370 µM)
MCF-7 cells; MCF7, 72 h
  IC50: 527 µg/mL (≈ 1760 µM)

## C[C@@H]1O[C@@H](O[C@@H]2[C@@H](O)[C@H](OCCc3ccc(O)c(O)c3)O[C@H](CO)[C@H]2OC(=O)/C=C/c2ccc(O)c(O)c2)[C@H](O)[C@H](O)[C@H]1O [Verbascoside]
RAW 264.7 macrophages; RAW264.7, RAW 264.7, 24 h, MTT, read-out: IC50
  IC50: 432 µg/mL (≈ 691 µM)
RAW 264.7 macrophages; RAW264.7, RAW 264.7, 48 h, MTT, read-out: IC50
  IC50: 446 µg/mL (≈ 714 µM)
RAW 264.7 macrophages; RAW264.7, RAW 264.7, 72 h, MTT, read-out: IC50
  IC50: 480 µg/mL (≈ 769 µM)
HeLa cells; 24 h, MTT, read-out: IC50
  IC50: 373 µg/mL (≈ 597 µM)
HeLa cells; 48 h, MTT, read-out: IC50
  IC50: 291 µg/mL (≈ 466 µM)
HeLa cells; 72 h, MTT, read-out: IC50
  IC50: 342 µg/mL (≈ 547 µM)
MCF-7 cells; MCF7, MCF-7, 24 h, MTT, read-out: IC50
  IC50: 186 µg/mL (≈ 297 µM)
MCF-7 cells; MCF7, MCF-7, 48 h, MTT, read-out: IC50
  IC50: 184 µg/mL (≈ 294 µM)
MCF-7 cells; MCF7, MCF-7, 72 h, MTT, read-out: IC50
  IC50: 173 µg/mL (≈ 277 µM)
